Where two headings read alike, the source gives them in different places.
Experiments:
[1] = tested on: antibody-forming cells (AFC) in the spleens; assay: Antibody-forming cells in the spleen, immunodeficiency caused by irradiation (Jeme-Nordin's procedure); assay type: in vivo, mice F1 (CBA×C57BL/6); details: irradiated mice 4 Gy
Experimental: Determination of immunotropic activity of isophonum was carried out. Immunotropic activity of isophonum was determined on a model of immunodeficiency caused by irradiation. To create an immunodeficient state the mice F1 (CBA×C57BL/6) were irradiated with gamma-rays on a radioterapeutic apparatus in a dose of 4 Gy (Gy is the irradiation unit gray) at an irradiation dose power of 0.55 Gr/min. The number of antibody-forming cells (AFC) in the spleens was calculated by Jeme-Nordin's procedure. Isophonum and diuciphonum were introduced per os over a wide range of doses. The investigation results are represented in Table 1.

[2] = tested on: antibody-forming cells (AFC) in the spleen; assay: Humoral immunity, localized-in-gel hemolysis, AFC accumulation in spleen of immunized mice; assay type: in vivo, hybrid mice F1 (CBA/C57BL6)
Experimental: The influence on humoral immunity was studied using the method of localized-in-gel hemolysis. […] On the 5th day the number of antibody-forming cells (AFC) in the spleen of the mice was calculated and the immune response stimulation index was determined as the ratio of AFC number in the test group to the AFC number in the control group. The respective data are represented in Table 2.

Tubazide-resistent H37Rv = assay type: in vivo, tuberculosis mycobacteria; mice of the CBA line; details: for Damage index / Life duration / Weight of the lung: Tubazide-resistent H37Rv
leprosy mycobacteria = assay: Example 3, patient I., lepromatose-typed leprosy, combination treatment; assay type: in vivo, human
Experimental: They had been ill for 8 years. BIN=66.8-10.8-5.5 where BIN means bacteriological index. […] HI=5,4 where HI means histological index. The patient was ordered the following treatment: 200 mg of isophonum internally twice a day, 200 mg of diuciphonum i.m. and 100 mg dimocifon internally twice a day.
After 8 months of treatment the agent of leprosy vanished in the scrape of nasal mucosa, BIN was 8.3-14.2-4.2, the immunologic parameters normalized. Atfer a year of treatment many of the infiltrates resolved and the other sharply diminished in size and became soft and elastic with their colour changed from rust-brown to cyanotic. BIN became 5.7-4.8-5.3.
There came lymphocytes in moderate numbers. […] The patient continues to undergo treatment.

[3] = tested on: chlamydious infection, PCND; assay: Double blind clinical test, chlamydiosis and pulmonary chronic nonspecific diseases; assay type: in vivo, human
Experimental: The investigation was carried out randomizedly by a “double blind method” on 45 patients aged 25 to 49 years.
The group I consisting of 15 patients (10 persons with pulmonary chronic nonspecific diseases (PCND), 6 of them having chronic catarrhal obstructive bronchitis and 4 having chronic catarrhal nonobstructive bronchitis; 4 persons with chlamydious infection and one person with ureaplasmic infection) received the preparation claimed as monotherapy in a daily dose of 200 mg during 30 days. The group II consisting of 15 patients (8 persons with chlamydious infection, 7 persons with PCND, 5 of them having chronic catarrhal bronchitis, 2 having bronchiectatic disease) received the preparation of the present invention as monotherapy in a daily dose of 400 mg during 30 days. The group III consisting of 15 patients (13 persons with PCND, 7 of them having chronic catarrhal nonobstructive bronchitis and 6 having chronic catarrhal obstructive bronchitis; 2 persons with chlamydious infection) received a placebo.

[4] = Example 2, patient D., bronchiectatic disease; assay type: in vivo, human; details: daily dose 400 mg
Experimental: The patient was admitted to a clinic with a diagnosis “bronchiectatic disease”. Concomitant diseases were chronic tonsillitis, diffuse enlargement of thyroid approximately of the first or the second degree.
According to the protocol of clinical tests the patient was ordered the intake of isophonum for the periode of 30 days in a daily dose of 400 mg. On the 14th or 15th day of intake of the preparation the morning sputum discharge considerably diminished in quantity and changed in character from pussy to mucous, the cough ceased and the patient's general state of health and mood improved.

[5] = tested on: agent of leprosy (mycobacteria of leprosy)
[6] = after a year, combination with diuciphonum and dimocifon
[7] = leprosy patients, after one month, 0.6 g daily
[8] = leprosy patients, after three months, 0.6 g daily
[9] = leprosy patients, before treatment

For `Cc1[nH]c(=O)[nH]c(=O)c1S(=O)(=O)NNC(=O)c1ccncc1.O` [Isophonum, N-(6-methyl-2,4-dioxo-1,2,3,4-tetrahydro-5-pyrimidinsulfon)-N′-isonicotinoylhydrazide hydrate], the “AFC-number in the spleen” value ([1]; 10 μg per mouse per os) was 1013 ± 126, the “Immune response stimulation index” value ([1]; 10 μg per mouse per os) was 3.63 ± 0.57 and the “AFC-number in the spleen” value ([1]; 100 μg per mouse per os) was 1173 ± 125. The “Immune response stimulation index” value ([1]; 100 μg per mouse per os) was 4.28 ± 0.8, the “AFC-number in the spleen” value ([1]; 1000 μg per mouse per os) was 1216 ± 124 and the “Immune response stimulation index” value ([1]; 1000 μg per mouse per os) was 4.46 ± 0.9. For the same compound, the “AFC-number in the spleen” value ([2]; 500 μg per mouse per os in starch suspension, 5th day after immunization) was 2800 ± 200, the “Immune response stimulation index” value ([2]; 500 μg per mouse per os, ratio of AFC test group to control group) was 5.6 and the Damage index (Tubazide-resistent H37Rv; 100 μg per mouse) was 1.91 ± 0.18. The Life duration (Tubazide-resistent H37Rv; 100 μg per mouse) was 35.2 ± 3.4, the “Weight of the lung” value (Tubazide-resistent H37Rv; 100 μg per mouse) was 493.4 ± 65.1 and the Damage index (Tubazide-resistent H37Rv; 200 μg per mouse) was 1.72 ± 0.24. The Life duration (Tubazide-resistent H37Rv; 200 μg per mouse) was 37.1 ± 6.2, the “Weight of the lung” value (Tubazide-resistent H37Rv; 200 μg per mouse) was 478.2 ± 60.8 and the antituberculous action (Tubazide-resistent H37Rv; mycobacteria resistent to tubazide and streptomycin) was “pronounced antituberculous action”. For the same compound, the “HI (histological index)” value (leprosy mycobacteria; [6]) was 4.8, the “amount of B-lymphocytes” value (leprosy mycobacteria; [6]) was 12% and the “amount of T-helpers” value (leprosy mycobacteria; [6]) was 66%. For the same compound, the “amount of T-lymphocytes” value (leprosy mycobacteria; [6]) was 85%, the immunoregilatory index (leprosy mycobacteria; [6]) was 3.4 and the “total number of lymphocytes” value (leprosy mycobacteria; [6]) was 51%. For the same compound, the “HI (histological index)” value (leprosy mycobacteria; patient I., on hospitalization) was 5,4, the side effects ([3]; dose of 200 mg and dose of 400 mg) was “does not have any side effects” and the “number of patients with improvement of clinico-immunologic indices” value ([3]; group I, 15 patients, 200 mg per day, 30 days) was 14 people. For the same compound, the “number of patients with improvement of clinico-immunologic parameters” value ([3]; group II, 15 patients, 400 mg daily, 30 days) was 14 persons, the “signs of individual intolerance” value ([3]; one patient of group I, 200 mg per day, 3rd day of intake) was “nausea and vomiting” and the “day of considerable improvement of clinical status and general blood analysis” value [4] was 20 days. The “day of considerable improvement of immune status parameters” value [4] was 31 days, the “shortening of the length of stationary treatment of the leprous patients” value ([5]; human, in vivo) was “two-fold” and the “tolerability, side effects” value ([5]; human, in vivo) was “well tolerable, has no side effects”. For the same compound, the “time after which the agent of leprosy disappeared in scrapes of nasal mucosa” value ([5]; leprosy patients, 0.6 g daily) was 3 months, the B-lymphocytes [5, 7] was 10.0 ± 0.2 and the T-helpers [5, 7] was 28.2 ± 0.3. The T-lymphocytes [5, 7] was 43.4 ± 0.7, the T-suppressors [5, 7] was 20.0 ± 0.4 and the “Th/Ts (immunoregulatory index)” value [5, 7] was 1.4. The B-lymphocytes [5, 8] was 11.4 ± 0.4, the T-helpers [5, 8] was 48.4 ± 1.2 and the T-lymphocytes [5, 8] was 60.2 ± 0.9. For the same compound, the T-suppressors [5, 8] was 21.2 ± 0.4, the “Th/Ts (immunoregulatory index)” value [5, 8] was 2.3 ± 0.1 and the B-lymphocytes [5, 9] was 8.4 ± 0.2. For the same compound, the T-helpers [5, 9] was 20.2 ± 0.2, the T-lymphocytes [5, 9] was 28.6 ± 0.1 and the T-suppressors [5, 9] was 20.4 ± 0.3. The “Th/Ts (immunoregulatory index)” value [5, 9] was 1.0.

Source: patent US6465476B1, “Immuno-modulator exhibiting antimicrobial and anti-mycrobacterial activities, method for producing the same and pharmaceutical preparation” (priority 1997, dated 2002)
